{"source": "patent US20250032476A1", "about": "“ALPHA-2A ADRENERGIC RECEPTOR MODULATORS AND USES THEREOF” (The Regents of the University of California, priority 2021, published 2025)", "key": {"α2AAR-S215^5.42A": {"biological_target": "α2AAR-S215^5.42A (Homo sapiens (Human), UniProt P08913, S215A)", "sequence (P08913 whole entry S215A)": "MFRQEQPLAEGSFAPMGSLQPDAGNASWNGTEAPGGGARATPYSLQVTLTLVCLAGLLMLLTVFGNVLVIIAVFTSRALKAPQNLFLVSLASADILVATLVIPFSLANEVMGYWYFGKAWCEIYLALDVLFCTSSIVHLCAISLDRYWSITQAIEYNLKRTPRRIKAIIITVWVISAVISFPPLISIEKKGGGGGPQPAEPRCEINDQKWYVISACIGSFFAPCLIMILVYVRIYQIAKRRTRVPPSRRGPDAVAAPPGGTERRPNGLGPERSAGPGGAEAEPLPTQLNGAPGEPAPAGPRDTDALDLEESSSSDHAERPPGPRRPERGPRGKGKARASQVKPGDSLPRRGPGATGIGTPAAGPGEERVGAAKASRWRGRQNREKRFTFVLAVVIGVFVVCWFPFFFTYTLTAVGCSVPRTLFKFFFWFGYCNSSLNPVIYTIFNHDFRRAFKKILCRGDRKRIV", "experiment": "Gi activation (BRET) at α2AAR S215^5.42A mutant", "type": "cell-based", "conditions": "versus wild type", "protocol": "Investigating the sensitivity of selected ligands to the receptor mutants α2AAR-D128^3.32A, α2AAR-D128^3.32T, α2AAR-D128^3.32L, α2AAR-S215^5.42A, α2AAR-Y409^6.55A, α2AAR-Y409^6.55T, α2AAR-Y409^6.55F, α2AAR-F427^7.39F, α2AAR-Y431^7.43A, and α2AAR-Y431^7.43F was determined by monitored G protein stimulation as described above transfecting the appropriate receptor together with Gαi1-RLucII and Gβ1/Gγ1-GFP10. […] Three to ten experiments were done in duplicate.\nThe sensitivity of selected ligands to the receptor mutants α2AAR-D128^3.32A, α2AAR-D128^3.32T, α2AAR-D128^3.32L, α2AAR-S215^5.42A, α2AAR-Y409^6.55A, α2AAR-Y409^6.55T, α2AAR-Y409^6.55F, α2AAR-F427^7.39F, α2AAR-Y431^7.43A, and α2AAR-Y431^7.43F was monitored by G protein activation as described above transfecting the appropriate receptor together with Gαi1-RLucII and Gβ1/Gγ2-GFP10. […] Similarly, the effect of the α2AAR-D128^3.32A, α2AAR-S215^5.42A, α2AAR-Y409^6.55A, α2AAR-Y409^6.55F, α2AAR-F427^7.39F, α2AAR-Y431^7.43A, and α2AAR-Y431^7.43F mutations on arrestin recruitment was evaluated as described above transfecting the appropriate receptor together with CAAX-rGFP, GRK2 and β-arrestin-2-RLucII. Data was analyzed as ligand induced changes in BRET compared to vehicle (deltaBRET). Three to seven experiments were done in duplicate."}, "[1]": {"experiment": "Metabolic stability in male rat liver microsomes", "type": "in vitro ADME", "conditions": "1 hour", "quoted_text": "Metabolic stability studies. Metabolic stability of the test compounds was assessed using male pooled rat liver microsomes (Sprague Dawley, Sigma Aldrich) as previously described (93, 94). The reactions were carried out in 2 mL polyethylene tubes on a rotator carousel (Stuart™ SB3) in an incubator at 37° C. […] Transformation reactions were initiated by the addition of 50 μL of cofactor solution (NADPH, Carl Roth, final concentration 1 mM). […] Precipitated protein was removed by centrifugation (1 min, 16,000 rcf) and the supernatants were analysed by HPLC/MS on a Thermo Scientific Dionex Ultimate 3000 HPLC system equipped with a Zorbax Eclipse XDB-C8 column (4.6×150 mm, 5 μm), a DAD detector (210 nm, 230 nm, 254 nm, 310 nm), and a BRUKER amaZon SL mass spectrometer with ESI source. The following binary eluent system (methanol in water+0.1% (v/v) formic acid) was employed: 10% for 1 min, 10% to 100% in 20 min, 100% for 5 min, 100% to 10% in 2 min, 10% for 2 min, flow 0.4 mL/min. […] Control experiments were conducted in the absence of cofactor solution to determine non-specific binding to matrix. The integral (AUC) of the extracted ion chromatograms (EIC) was used to analyze the concentration of the remaining substrates. […]"}, "SNI mice": {"test_system": "SNI mice", "experiment": "Spared-nerve injury (SNI) model of neuropathic pain, von Frey mechanical thresholds", "type": "in vivo", "protocol": "Spared-nerve injury (SNI) model of neuropathic pain. Under isoflurane anesthesia, two of the three branches of the sciatic nerve were ligated and transected distally, leaving the sural nerve intact. Behavior was tested 7 to 14 days after injury and in situ hybridization was performed one week post-injury."}, "human α2AAR [2]": {"biological_target": "T1, human α2AAR (Homo sapiens (Human), UniProt P08913)", "T1 sequence (P08913 whole entry)": "as the sequence (P08913 whole entry S215A) above, with A215S counted along it", "experiment": "α2AAR internalization assay with rGFP-CAAX and rGFP-FYVE biosensors", "type": "cell-based", "conditions": "α2AAR-RlucII/rGFP-CAAX biosensor", "quoted_text": "Human α2AAR internalization was evaluated by measuring the disappearance of hα2AAR-RlucII from the plasma membrane labeled with rGFP-CAAX and its relocalization in endosome labeled with rGFP-FYVE (39).\nFor concentration-response curves, BRET signal was measured after 30 min incubation. Plates were read on a Spark microplate reader (Tecan; Mannedorf, Switzerland) using the BRET2 manufacturer settings."}, "[3]": {"biological_target": "ALPHA-2A ADRENERGIC RECEPTOR (Homo sapiens (Human), UniProt P08913)", "sequence (P08913 whole entry)": "as the sequence (P08913 whole entry S215A) above, with A215S counted along it", "experiment": "Gi recruitment (G protein)", "type": "cell-based", "conditions": "Gi recruitment"}, "analgesia in vivo": {"experiment": "analgesia in vivo", "conditions": "result in words, Table 6"}, "human α2AAR [4]": {"biological_target": "T1, human α2AAR", "experiment": "DiscoverX HitHunter cAMP G-protein activation assay", "quoted_text": "DiscoverX HitHunter cAMP G-protein activation assay. […] Freezer stock cAMP Hunter cell lines were expanded, then seeded in a total volume of 20 uL into white walled, 384-well microplates and incubated at 37° C. prior to testing. For agonist determination, cells were incubated with compound samples in the presence of EC80 forskolin to induce response. Media was aspirated from cells and replaced with 15 uL 2:1 HBSS/10 mM Hepes: cAMP XS+Ab reagent. Intermediate dilution of sample stocks was performed to generate 4× sample in assay buffer containing 4× EC80 forskolin. […] Finally assay vehicle concentration was 1%. After sample incubation assay signal was generated through incubation with 20 uL cAMP XS+ED/CL lysis cocktail for one hour followed by incubation with 20 uL cAMP XS+EA reagent for three hours at room temperature. Microplates were read following signal generation with a PerkinElmer Envision Instrument for chemiluminescent signal detection. Compound activity was analyzed using CBIS data analysis suite. For Gi agonist mode, percentage activity is calculated using the following formula: % Activity=100%×(1−(mean RLU of test sample−mean RLU of MAX control)/(mean RLU of vehicle control−mean RLU of MAX control)). […] Each measurement was done in duplicate.\nDiscoverX HitHunter cAMP G-protein activation assay. […] Freezer stock cAMP Hunter cell lines were expanded, then seeded in a total volume of 20 μL into white walled, 384-well microplates and incubated at 37° C. prior to testing. For agonist determination, cells were incubated with compound samples in the presence of EC50 forskolin to induce response. Media was aspirated from cells and replaced with 15 μL 2:1 HBSS/10 mM Hepes: cAMP XS+Ab reagent. Intermediate dilution of sample stocks was performed to generate 4× sample in assay buffer containing 4× EC80 forskolin. […] Finally assay vehicle concentration was 1%. After sample incubation assay signal was generated through incubation with 20 μL cAMP XS+ED/CL lysis cocktail for one hour followed by incubation with 20 μL cAMP XS+EA reagent for three hours at room temperature. Microplates were read following signal generation with a PerkinElmer Envision Instrument for chemiluminescent signal detection. Compound activity was analyzed using CBIS data analysis suite. For Gi agonist mode, percentage activity is calculated using the following formula: % Activity=100%×(1−(mean RLU of test sample−mean RLU of MAX control)/(mean RLU of vehicle control−mean RLU of MAX control)). […] Each measurement was done in duplicate."}, "human α2AAR [5]": {"biological_target": "T1, human α2AAR", "experiment": "Gαi G protein activation, BRET biosensor assay in HEK293T cells", "conditions": "for Emax: HEK-293T"}, "human α2AAR [6]": {"biological_target": "T1, human α2AAR", "experiment": "β-arrestin-2 recruitment, BRET biosensor assay in HEK293T cells", "conditions": "HEK-293T", "quoted_text": "Bioluminescense resonance energy transfer. G protein mediated activation of human α2AAR and D2long was monitored with Gαi1-RLucII (71, 72) together with Gβ1 and Gγ1-GFP10. Arrestin recruitment was performed by enhanced bystander BRET using CAAX-rGFP and β-arrestin-2-RLucII as biosensors (all biosensors are provided from M. Bouvier, Université de Montréal, Canada) (71, 73) in the presence of GRK2 as described (66, 74). In brief, HEK293T cells were transfected with a total amount of 3.3 μg DNA per 10^6 cells using linear polyethyleneimine (PEI, Polysciences, 3:1 PEI:DNA ratio) and transferred into 96-well half-area plates (Greiner, Frickenhausen, Germany) at a density of 10,000 cells per well and incubated for 48 hrs. Medium was exchanged with PBS (Hank's balanced salt solution) and cells were stimulated with ligands at 37° C. for 10 min for Gαi stimulation or arrestin recruitment, respectively."}}}
{"compound": "Fc1cccc2c(Nc3ccncc3)cccc12", "note": "[Compound 7075, N-(5-fluoronaphthalen-1-yl)pyridin-4-amine]", "values": [{"measurement": "Fold improvement of Gi potency at S215^5.42A", "setting": "α2AAR-S215^5.42A", "result": 11, "unit": "fold"}, {"measurement": "Metabolic stability, compound remaining", "setting": "[1]", "result": "remain largely unmodified after 1 hour"}, {"measurement": "Effect of atipamezole on the agonist's effect in SNI mice", "setting": "SNI mice; atipamezole 2 mg/kg, 15 minutes prior", "result": "reversed by atipamezole"}, {"measurement": "Mechanical thresholds / anti-allodynic effect in SNI mice", "setting": "SNI mice; systemic injection", "result": "exhibited anti-allodynic effects"}, {"measurement": "Reversal of mechanical hypersensitivity in SNI mice", "setting": "SNI mice; systemic injection", "result": "completely reversed the mechanical hypersensitivity"}, {"measurement": "Disappearance of α2AAR from the plasma membrane (internalization)", "setting": "human α2AAR [2]", "result": "no effect"}, {"measurement": "functional classification (agonist / weak agonist)", "setting": "[3]; Table 6, result in words", "result": "agonist"}, {"measurement": "EC50", "setting": "[3]; Table 6, read-out: EC50", "result": 4.1, "unit": "nM"}, {"measurement": "Emax", "setting": "[3]; Table 6, read-out: Emax (%)", "result": 89, "unit": "%"}, {"measurement": "analgesic in vivo", "setting": "analgesia in vivo", "result": "analgesic in vivo"}, {"measurement": "EC50", "setting": "human α2AAR [4]", "result": 18, "unit": "nM"}, {"measurement": "Emax", "setting": "human α2AAR [4]; read-out: Gi/o Emax", "result": 96, "unit": "%"}, {"measurement": "Fold increased Gi potency compared to ‘9087", "setting": "human α2AAR [5]", "result": 13, "unit": "fold"}, {"measurement": "EC50", "setting": "human α2AAR [5]; Gi EC50 ± SE, BRET biosensor, human α2AAR (Table 3)", "result": 4.1, "unit": "nM"}, {"measurement": "EC50", "setting": "human α2AAR [5]; Gαi EC50, BRET biosensor, HEK293T, human α2AAR", "result": 4.1, "unit": "nM"}, {"measurement": "Emax", "setting": "human α2AAR [5]; read-out: Gi Emax ± SEM", "result": 93, "unit": "%"}, {"measurement": "Emax", "setting": "human α2AAR [5]; read-out: Gαi Emax", "result": 93, "unit": "%"}, {"measurement": "Emax", "setting": "human α2AAR [6]; read-out: β-Arr-2 Emax @ 0.1 mM", "result": 10, "unit": "%"}, {"measurement": "Emax at 100 µM", "setting": "human α2AAR [6]; read-out: β-arrestin-2 Emax @ 0.1 mM", "result": "10 ± 7", "unit": "%"}]}
